Consider five compounds from EP2168591A1, “Antimicrobial peptides” (Helmholtz Zentrum München Deutsches Forschungszentrum für …, priority 2008, dated 2010).

Read-outs that look alike come from different tables or passages of the source. Non-standard residues stand in square brackets, D forms with d. Residues, ends and D or L forms follow the SMILES beside them. No end group written: not given here.

Assay [1] concerns Pseudomonas syringae pv. syringae. As to the method: (§1) In-vitro inhibition assays were performed in sterile flat-bottom 96-well plates (Greiner bio-one, Frickenhausen). Antimicrobial peptides were dissolved in 0.01% acetic acid containing 0.2% BSA (500 µg/ml), filter sterilized and stored at -20°C. For inhibition assays dilutions of peptides ranging from 5 to 200 µg/ml were prepared and 10 µl (antibacterial assay) or 20 µl (antifungal assay) of each concentration was loaded per well.
(§2) Bacteria colonies from overnight agar plate cultures were resuspended into 5ml LB-medium or HPG-medium (OD600nm=0.08-0.1) and diluted into LB-medium/HPG-medium (1:100). 90 µl of this suspension containing about 10^5-10^6 CFU/ml of tested bacteria were added to each well resulting in final peptide concentrations of 0, 0.5, 1, 2, 5, 10, and 20 µg/ml.
(§3) The lowest peptide concentration leading to complete inhibition of bacterial growth or spore germination/mycelial growth (minimal inhibition concentration, MIC) was determined for each organism-peptide combination. For each peptide concentration two identical inhibition assays were performed. […] Table 1: Minimal inhibition concentration (MIC) for complete inhibition of bacterial growth or spore germination/mycelial growth.

Another assay deals with Pseudomonas corrugata. On the procedure:
as §1, §2, §3

Assay [2] concerns Pectobacterium carotovorum sub. carotovorum. On the procedure:
as §1, §2, §3

Assay [3] deals with Clavibacter michiganensis sub. michiganensis. Conditions: complete inhibition of bacterial growth, overnight at 25 °C. As to the method: as §1, §2, §3
In assay [4] the test system is Pseudomonas syringae pv. tomato. On the procedure: as §1, §2, §3
Another assay deals with Xanthomonas vesicatoria. As to the method: as §1, §2, §3
In a further assay the test system is Alternaria alternata. It counts as cell-based. Conditions: complete inhibition of spore germination/mycelial growth, OD590nm. As to the method: (§4) In-vitro inhibition assays were performed in sterile flat-bottom 96-well plates (Greiner bio-one, Frickenhausen). […] Spores of fungi were collected by water washes of sporulating cultures grown on 2% malt extract agar and spore concentration was determined by microscopy. The concentration of the spores was adjusted to 1.5-2 x 10^3 spores/ml in 2% malt extract medium and 80 µl of fungal spores were added per well. […] After overnight incubation at room temperature the plate were put on a rotary shaker (300 rpm) for further two days to ensure consistantly growth. Antifungal effects of the peptides were determined by a microplate reader (Alternaria, Fusarium) at OD590nm or by visual screening of the plates (Botrytis, Cladosporium). The lowest peptide concentration leading to complete inhibition of bacterial growth or spore germination/mycelial growth (minimal inhibition concentration, MIC) was determined for each organism-peptide combination. For each peptide concentration two identical inhibition assays were performed. Table 1: Minimal inhibition concentration (MIC) for complete inhibition of bacterial growth or spore germination/mycelial growth.

The subject of the next assay is Botrytis cinerea. The assay is classed as cell-based. Conditions: complete inhibition of spore germination/mycelial growth, visual screening. As to the method: as §4
Another assay concerns Cladosporium herbarum. The assay is classed as cell-based. Conditions: complete inhibition of spore germination/mycelial growth, visual screening. As to the method:
as §4

The mark [5] stands for this setting: complete inhibition of bacterial growth, Pseudomonas syringae pv. syringae, overnight at 25 °C.
The mark [6] stands for this setting: complete inhibition of bacterial growth, Pseudomonas corrugata, overnight at 25 °C.
Setting [7] is: complete inhibition of bacterial growth, Pectobacterium carotovorum sub. carotovorum, overnight at 25 °C.
Setting [8] is: complete inhibition of bacterial growth, Pseudomonas syringae pv. tomato, overnight at 25 °C.
Where [9] appears, read: complete inhibition of bacterial growth, Xanthomonas vesicatoria, overnight at 25 °C.

In the case of LLIRAAKKFIKK-NH2 [SP8], the “Minimal inhibition concentration (MIC)” value (in assay [1] (setting [5]); with Pseudomonas corrugata (setting [6]); in assay [2] (setting [7]); in assay [3]; in assay [4] (setting [8]); with Xanthomonas vesicatoria (setting [9])) was above 40 µg/mL throughout. In addition, the “Minimal inhibition concentration (MIC)” value with Alternaria alternata is above 100 µg/mL; in the assay on Botrytis cinerea it was above 100 µg/mL; with Cladosporium herbarum it was 40 µg/mL.

For LLIKFLKRFIKH-NH2 [SP7], the “Minimal inhibition concentration (MIC)” value in assay [1] (setting [5]) was 10 µg/mL; with Pseudomonas corrugata (setting [6]), 10 µg/mL; in [2] (setting [7]) it was above 40 µg/mL; in assay [3], 5 µg/mL; in assay [4] (setting [8]) it was 5 µg/mL; in the assay with Xanthomonas vesicatoria (setting [9]) it was 5 µg/mL. The “Minimal inhibition concentration (MIC)” value in the assay with Alternaria alternata was above 100 µg/mL; in the assay with Botrytis cinerea, above 100 µg/mL; in the assay on Cladosporium herbarum it was 20 µg/mL.

Turning to `CC[C@@H](C)[C@@H](NC(=O)[C@H](Cc1ccccc1)NC(=O)[C@H](CCCNC(=N)N)NC(=O)[C@H](CCCCN)NC(=O)[C@H](CC(C)C)NC(=O)[C@H](Cc1ccccc1)NC(=O)[C@H](CCCCN)NC(=O)[C@H](NC(=O)[C@H](CC(C)C)NC(=O)[C@@H](N)CC(C)C)[C@H](C)CC)C(=O)N[C@@H](CCCCN)C(=O)N[C@@H](Cc1c[nH]cn1)C(N)=O` [SP7-D, LL/KFLKRF/KH] (H-LL[dI]KFLKRF[dI]KH-NH2; N-terminus assumed), the “Minimal inhibition concentration (MIC)” value in assay [1] was 2,5 µg/ml; in the assay with Pseudomonas corrugata, 5 µg/mL; in assay [2], 40 µg/mL; in [4] it was 2,5 µg/ml; with Xanthomonas vesicatoria, 10 µg/mL.

For ALAHFLKKAIKK-NH2 [SP6], the “Minimal inhibition concentration (MIC)” value in [1] (setting [5]) was 5 µg/mL; with Pseudomonas corrugata (setting [6]), 20 µg/mL; in assay [2] (setting [7]), above 40 µg/mL; in assay [3], above 40 µg/mL; in assay [4] (setting [8]), 10 µg/mL; in the assay with Xanthomonas vesicatoria (setting [9]) it was 40 µg/mL. For the same compound, the “Minimal inhibition concentration (MIC)” value was above 100 µg/mL with Alternaria alternata, above 100 µg/mL with Botrytis cinerea and 100 µg/mL with Cladosporium herbarum.

Consider LLIAAFKKLVKK-NH2 [SP5], for which the “Minimal inhibition concentration (MIC)” value in assay [1] (setting [5]) is 40 µg/mL; in the assay on Pseudomonas corrugata (setting [6]) it was above 40 µg/mL; in assay [2] (setting [7]), above 40 µg/mL; in assay [3], 20 µg/mL; in assay [4] (setting [8]), above 40 µg/mL; in the assay on Xanthomonas vesicatoria (setting [9]), 40 µg/mL. In addition, the “Minimal inhibition concentration (MIC)” value is above 100 µg/mL in the assay on Alternaria alternata, above 100 µg/mL in the assay on Botrytis cinerea and 100 µg/mL in the assay on Cladosporium herbarum.
